From patent US12157738B2, “Macrocyclic inhibitors of ALK, TRKA, TRKB, and ROS1” (DANA-FARBER CANCER INSTITUTE, INC., priority 2018, dated 2024)

How the values were obtained:
[1] = system: tel-TRK fusion Ba/F3 cell lines; experiment: IC50 in TEL-TRK Ba/F3 cells; type: cell-based; conditions: all 3 tel-TRK fusion Ba/F3 cell lines; FIG. 5
From the text: The IC50 values were generated using ACD/Labs GraphPad Prism (version 7).

ALK = target: T1, ALK (Homo sapiens, UniProt Q9UM73); experiment: Invitrogen Z'-lyte or LanthaScreen kinase IC50 assay; type: biochemical
T1 construct: similar enzymatic potency was observed against full length ALK and ALK mutants; purchased Invitrogen
From the text: (§1) The IC50 values were generated from Invitrogen™'s Z'-lytet™ or LanthaScreen™ assays.

TRK1 = target: T2, TRK1 (Homo sapiens, UniProt P04629); experiment: as above; type: biochemical
T2 construct: purchased Invitrogen
From the text: as §1

TRK2 = target: T3, TRK2 (Homo sapiens, UniProt Q16620); experiment: as above; type: biochemical
T3 construct: purchased Invitrogen
From the text: as §1

TRK3 = target: T4, TRK3 (Homo sapiens, UniProt Q16288); experiment: as above; type: biochemical
T4 construct: purchased Invitrogen
From the text: as §1

ALK L1196M = target: T5, ALK L1196M (Homo sapiens, UniProt Q9UM73, L1196M); experiment: as above; type: biochemical
T5 construct: purchased Invitrogen
From the text: as §1

ROS1 = target: T6, ROS1 (Homo sapiens, UniProt P08922); experiment: as above; type: biochemical
T6 construct: purchased Invitrogen
From the text: as §1

[2] = system: Ba/F3 cell lines expressing EML4-ALK and EML4-ALK with secondary mutations; experiment: Anti-proliferation assay in EML4-ALK Ba/F3 cell lines; type: cell-based
Experimental: (§2) Ba/F3 cell lines were cultured in RPMI-1640 media containing L-glutamine, supplemented with 10% fetal bovine serum (FBS) and 1% penicillin/streptomycin. Parental Ba/F3 cells were cultured with an additional 1 ng/mL recombinant mouse IL-3 (ProSpec). Mycoplasma testing was performed on a monthly basis and all lines were negative. Cell viability was evaluated using the CellTiter-Glo® Luminescent Cell Viability Assay (Promega) following the manufacturer's standards. 12-point dose titrations were tested in triplicate from 10000 nM to 0.056 nM over 72 hr. Anti-proliferative best fit IC50 values were calculated by Graphpad Prism 7 software.

Parental WT Ba/F3 cells = experiment: Cell viability assay (CellTiter-Glo, 72 hr); type: cell-based; conditions: for IC50: Mus musculus, BaF3, 72 hr
Experimental: as §2
The experimental protocol was as in Example 11.

[3] = system: ALK wild type, ALK mutants, TRKA, TRKB, TRKC and ROS1; experiment: AMBIT profile, DiscoverX KINOMEscan Assay platform; type: binding; conditions: for Ambit profile potency and selectivity: Example 10, FIG. 7A and 7B
From the text: The AMBIT data were generated using DiscoverX KINOMEscan® Assay platform.
The experimental protocol was as in Example 9.

CD74-NTRK1 Ba/F3 cells = target: T7, CD74-NTRK1 Ba/F3 cells (Homo sapiens, UniProt P04629); experiment: Cell viability assay (CellTiter-Glo, 72 hr); type: cell-based; conditions: for IC50: 72 hr
T7 construct: expressed in transfected cells; host or cells: Ba/F3; the other entry of the earlier key: CD74 (P04233, HLA class II histocompatibility antigen gamma chain)
Experimental: (§3) Parental Ba/F3 cells were cultured with an additional 1 ng/mL recombinant mouse IL-3 (ProSpec). […] Cell viability was evaluated using the CellTiter-Glo® Luminescent Cell Viability Assay (Promega) following the manufacturer's standards. […] Anti-proliferative best fit IC50 values were calculated by Graphpad Prism 7 software.

[4] = target: T8, Ba/F3 EML4-ALK C1156Y cells (Homo sapiens, UniProt Q9UM73, C1156Y); experiment: Cell viability assay (CellTiter-Glo, 72 hr); type: cell-based
T8 construct: expressed in transfected cells; host or cells: Ba/F3; the other entry of the earlier key: EML4 (Q9HC35, Echinoderm microtubule-associated protein-like 4)
Experimental: as §3

[5] = target: T9, Ba/F3 EML4-ALK L1196M cells (Homo sapiens, UniProt Q9UM73, L1196M); experiment: Cell viability assay (CellTiter-Glo, 72 hr); type: cell-based
T9 construct: expressed in transfected cells; host or cells: Ba/F3; the other entry of the earlier key: EML4 (Q9HC35, Echinoderm microtubule-associated protein-like 4)
Experimental: as §3

Ba/F3 EML4-ALK cells = target: T10, Ba/F3 EML4-ALK cells (Homo sapiens, UniProt Q9UM73); experiment: Cell viability assay (CellTiter-Glo, 72 hr); type: cell-based
T10 construct: expressed in transfected cells; host or cells: Ba/F3; the other entry of the earlier key: EML4 (Q9HC35, Echinoderm microtubule-associated protein-like 4)
Experimental: as §3

[6] = target: T11, Ba/F3 EML4-ALK G1202R cells (Homo sapiens, UniProt Q9UM73, G1202R); experiment: Cell viability assay (CellTiter-Glo, 72 hr); type: cell-based
T11 construct: expressed in transfected cells; host or cells: Ba/F3; the other entry of the earlier key: EML4 (Q9HC35, Echinoderm microtubule-associated protein-like 4)
Experimental: as §3

T2 sequence (P04629 33-796): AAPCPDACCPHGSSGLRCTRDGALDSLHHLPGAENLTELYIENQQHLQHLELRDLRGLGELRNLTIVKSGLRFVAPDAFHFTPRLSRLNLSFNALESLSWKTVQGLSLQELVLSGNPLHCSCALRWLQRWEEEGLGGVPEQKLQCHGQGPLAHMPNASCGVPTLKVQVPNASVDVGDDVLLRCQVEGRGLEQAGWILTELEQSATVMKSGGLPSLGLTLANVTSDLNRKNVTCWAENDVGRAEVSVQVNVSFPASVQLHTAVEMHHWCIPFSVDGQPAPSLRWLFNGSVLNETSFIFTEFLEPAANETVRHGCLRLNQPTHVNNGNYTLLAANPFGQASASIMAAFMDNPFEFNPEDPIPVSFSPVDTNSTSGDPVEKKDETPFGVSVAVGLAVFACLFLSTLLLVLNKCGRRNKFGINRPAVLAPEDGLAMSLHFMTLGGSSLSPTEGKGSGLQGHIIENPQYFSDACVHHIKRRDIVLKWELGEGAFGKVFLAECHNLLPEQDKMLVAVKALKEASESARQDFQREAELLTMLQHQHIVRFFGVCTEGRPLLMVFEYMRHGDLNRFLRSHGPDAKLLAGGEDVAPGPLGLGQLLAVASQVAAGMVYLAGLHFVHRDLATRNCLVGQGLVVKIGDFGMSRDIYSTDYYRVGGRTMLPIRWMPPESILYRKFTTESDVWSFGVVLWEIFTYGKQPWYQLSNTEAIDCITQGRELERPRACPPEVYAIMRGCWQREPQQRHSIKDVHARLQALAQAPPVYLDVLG
T6 sequence (P08922 28-2347): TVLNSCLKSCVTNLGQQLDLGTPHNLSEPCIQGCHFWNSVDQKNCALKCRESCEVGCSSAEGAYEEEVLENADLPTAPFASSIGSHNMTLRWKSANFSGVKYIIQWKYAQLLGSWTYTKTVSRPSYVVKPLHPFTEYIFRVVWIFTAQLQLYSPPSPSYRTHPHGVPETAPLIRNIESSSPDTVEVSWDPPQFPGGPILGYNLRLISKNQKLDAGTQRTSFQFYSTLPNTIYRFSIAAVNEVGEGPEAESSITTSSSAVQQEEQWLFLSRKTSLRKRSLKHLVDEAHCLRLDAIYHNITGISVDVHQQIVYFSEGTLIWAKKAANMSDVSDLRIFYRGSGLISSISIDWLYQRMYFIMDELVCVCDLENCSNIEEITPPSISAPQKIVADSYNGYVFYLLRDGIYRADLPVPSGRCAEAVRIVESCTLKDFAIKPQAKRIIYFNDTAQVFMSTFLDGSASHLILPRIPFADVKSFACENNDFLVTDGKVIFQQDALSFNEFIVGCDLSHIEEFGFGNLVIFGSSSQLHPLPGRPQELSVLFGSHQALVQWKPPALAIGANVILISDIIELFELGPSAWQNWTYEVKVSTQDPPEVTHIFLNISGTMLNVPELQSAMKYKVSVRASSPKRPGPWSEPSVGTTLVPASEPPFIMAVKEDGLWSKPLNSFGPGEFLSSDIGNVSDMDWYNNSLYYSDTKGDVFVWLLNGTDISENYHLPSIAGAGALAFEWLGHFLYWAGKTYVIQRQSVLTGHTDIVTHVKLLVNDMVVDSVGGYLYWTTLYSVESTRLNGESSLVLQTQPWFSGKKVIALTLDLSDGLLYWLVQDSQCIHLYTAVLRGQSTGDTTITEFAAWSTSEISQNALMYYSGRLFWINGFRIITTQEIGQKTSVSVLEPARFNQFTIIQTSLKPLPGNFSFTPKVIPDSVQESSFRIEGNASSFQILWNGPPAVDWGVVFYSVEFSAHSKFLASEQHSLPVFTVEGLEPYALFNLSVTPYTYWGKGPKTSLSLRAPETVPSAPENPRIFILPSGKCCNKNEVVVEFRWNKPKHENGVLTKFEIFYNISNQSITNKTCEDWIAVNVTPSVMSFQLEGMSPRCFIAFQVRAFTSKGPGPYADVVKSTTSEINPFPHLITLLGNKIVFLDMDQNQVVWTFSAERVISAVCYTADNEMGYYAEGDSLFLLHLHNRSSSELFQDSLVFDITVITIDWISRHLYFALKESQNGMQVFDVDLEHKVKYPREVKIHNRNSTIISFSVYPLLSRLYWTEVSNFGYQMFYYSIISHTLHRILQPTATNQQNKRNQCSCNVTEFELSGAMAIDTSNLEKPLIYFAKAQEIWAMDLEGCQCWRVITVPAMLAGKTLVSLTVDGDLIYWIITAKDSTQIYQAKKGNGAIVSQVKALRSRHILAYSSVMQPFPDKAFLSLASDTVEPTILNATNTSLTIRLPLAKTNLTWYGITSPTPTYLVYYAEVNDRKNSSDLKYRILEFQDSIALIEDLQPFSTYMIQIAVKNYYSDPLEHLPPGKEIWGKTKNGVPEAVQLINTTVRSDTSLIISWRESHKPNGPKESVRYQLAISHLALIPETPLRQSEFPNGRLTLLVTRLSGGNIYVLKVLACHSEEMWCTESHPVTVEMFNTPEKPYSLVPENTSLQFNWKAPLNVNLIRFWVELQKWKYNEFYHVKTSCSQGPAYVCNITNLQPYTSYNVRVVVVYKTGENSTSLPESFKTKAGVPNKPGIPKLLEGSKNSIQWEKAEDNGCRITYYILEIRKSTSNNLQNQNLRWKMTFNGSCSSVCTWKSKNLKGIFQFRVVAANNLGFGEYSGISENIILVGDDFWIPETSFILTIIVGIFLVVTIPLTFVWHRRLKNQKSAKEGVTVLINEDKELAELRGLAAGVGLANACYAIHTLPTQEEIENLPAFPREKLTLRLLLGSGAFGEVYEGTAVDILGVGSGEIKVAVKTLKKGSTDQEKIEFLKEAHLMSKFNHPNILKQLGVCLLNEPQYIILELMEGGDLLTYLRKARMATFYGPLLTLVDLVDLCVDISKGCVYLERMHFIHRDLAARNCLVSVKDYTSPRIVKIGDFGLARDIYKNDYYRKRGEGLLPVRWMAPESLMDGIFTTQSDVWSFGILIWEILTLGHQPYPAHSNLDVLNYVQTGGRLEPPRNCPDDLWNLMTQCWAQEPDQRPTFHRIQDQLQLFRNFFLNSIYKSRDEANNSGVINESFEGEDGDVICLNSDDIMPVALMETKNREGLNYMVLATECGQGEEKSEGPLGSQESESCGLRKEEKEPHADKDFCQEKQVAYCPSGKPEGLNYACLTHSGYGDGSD
T3 sequence (Q16620 32-822): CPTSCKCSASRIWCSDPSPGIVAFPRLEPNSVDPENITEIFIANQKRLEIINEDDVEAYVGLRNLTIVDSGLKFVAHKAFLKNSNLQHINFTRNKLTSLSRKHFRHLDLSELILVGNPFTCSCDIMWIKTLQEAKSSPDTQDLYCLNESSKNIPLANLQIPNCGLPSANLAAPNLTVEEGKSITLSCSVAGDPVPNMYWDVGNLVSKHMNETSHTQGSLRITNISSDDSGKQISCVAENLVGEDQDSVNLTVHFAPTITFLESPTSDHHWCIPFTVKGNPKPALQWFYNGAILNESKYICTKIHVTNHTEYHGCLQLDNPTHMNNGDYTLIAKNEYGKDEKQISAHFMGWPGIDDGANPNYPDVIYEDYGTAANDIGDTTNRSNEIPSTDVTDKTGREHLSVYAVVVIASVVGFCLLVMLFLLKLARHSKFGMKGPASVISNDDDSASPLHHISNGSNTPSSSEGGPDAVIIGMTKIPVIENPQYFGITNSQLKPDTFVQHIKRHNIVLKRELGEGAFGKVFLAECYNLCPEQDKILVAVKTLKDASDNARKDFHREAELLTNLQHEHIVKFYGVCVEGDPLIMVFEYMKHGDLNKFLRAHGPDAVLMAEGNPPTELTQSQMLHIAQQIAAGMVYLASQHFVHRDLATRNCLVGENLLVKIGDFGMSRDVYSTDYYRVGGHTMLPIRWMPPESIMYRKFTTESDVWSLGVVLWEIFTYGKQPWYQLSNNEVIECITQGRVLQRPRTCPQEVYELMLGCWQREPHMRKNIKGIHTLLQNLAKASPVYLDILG
T4 sequence (Q16288 32-839): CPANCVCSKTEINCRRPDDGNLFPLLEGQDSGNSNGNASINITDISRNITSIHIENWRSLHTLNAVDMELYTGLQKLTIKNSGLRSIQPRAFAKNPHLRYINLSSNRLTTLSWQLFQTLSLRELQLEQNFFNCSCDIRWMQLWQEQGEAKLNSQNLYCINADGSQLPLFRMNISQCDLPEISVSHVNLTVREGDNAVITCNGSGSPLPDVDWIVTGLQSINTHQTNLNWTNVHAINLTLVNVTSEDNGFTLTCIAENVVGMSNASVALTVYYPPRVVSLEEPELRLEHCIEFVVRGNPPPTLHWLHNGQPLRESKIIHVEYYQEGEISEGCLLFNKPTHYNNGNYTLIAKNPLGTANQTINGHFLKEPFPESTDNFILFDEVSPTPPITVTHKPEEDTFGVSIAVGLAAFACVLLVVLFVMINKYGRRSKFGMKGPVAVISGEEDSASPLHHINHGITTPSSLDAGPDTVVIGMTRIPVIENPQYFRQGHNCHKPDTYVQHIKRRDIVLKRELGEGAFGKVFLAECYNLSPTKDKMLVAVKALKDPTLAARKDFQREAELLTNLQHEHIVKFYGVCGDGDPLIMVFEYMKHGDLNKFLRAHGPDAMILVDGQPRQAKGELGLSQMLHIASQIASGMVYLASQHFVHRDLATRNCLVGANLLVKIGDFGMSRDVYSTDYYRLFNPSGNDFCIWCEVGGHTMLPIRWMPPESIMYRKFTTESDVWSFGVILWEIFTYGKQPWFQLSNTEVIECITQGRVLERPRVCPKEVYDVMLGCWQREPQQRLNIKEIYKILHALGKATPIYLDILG
T7 sequence (P04629 510-796 limits assumed): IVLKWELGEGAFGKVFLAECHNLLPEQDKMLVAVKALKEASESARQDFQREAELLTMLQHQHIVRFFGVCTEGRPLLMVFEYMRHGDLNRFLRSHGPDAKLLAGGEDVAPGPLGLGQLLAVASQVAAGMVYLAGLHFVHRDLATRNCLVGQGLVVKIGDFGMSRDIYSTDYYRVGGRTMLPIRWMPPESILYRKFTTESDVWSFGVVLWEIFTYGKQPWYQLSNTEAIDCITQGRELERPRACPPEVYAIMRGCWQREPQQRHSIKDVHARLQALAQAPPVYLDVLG

Row | SMILES | potency (IC50) relative to entrectinib in tel-TRK fusion Ba/F3 cell lines [1] | IC50 (ALK) | IC50 (TRK1) | IC50 (TRK2) | IC50 (TRK3) | IC50 (ALK L1196M) | IC50 (ROS1) | anti-proliferative activity relative to lorlatinib ([2]; Example 11, FIG. 1) | activity relative to lorlatinib and JH-XIII-157-2 ([2]; Example 12, FIG. 2A-2D, Tables 2-5) | IC50 (Parental WT Ba/F3 cells) | non-specific activity in parental Ba/F3 cells, compared in words (Parental WT Ba/F3 cells) | Ambit profile selectivity (percent activity remaining) ([3]; Example 9, FIG. 6) | Ambit profile potency and selectivity [3] | IC50 (CD74-NTRK1 Ba/F3 cells) | activity relative to entrectinib in CD74-NTRK1 expressing Ba/F3 cells (CD74-NTRK1 Ba/F3 cells; in words) | IC50 [4] | IC50 [5] | IC50 (Ba/F3 EML4-ALK cells) | IC50 [6]
1 | CN1Cc2nn(C)cc2-c2cnc(N)c(c2)N2CCC[C@@H]2c2cc(F)ccc2C1=O [Compound I-1a, (R)-26-amino-45-fluoro-11,6-dimethyl-11H-6-aza-2(3,5)-pyridina-1(4,3)-pyrazola-3(1,2)-pyrrolidina-4(1,3)-benzenacycloheptaphan-5-one] | more potent than entrectinib | 12 nM | 3 nM | 0.5 nM | 0.7 nM | 6 nM | 1.3 nM | lower activity | lower activity | 19000 nM | less non-specific activity than entrectinib | quite selective toward ALK wild type, ALK mutants as well as TRKA, TRKB, TRKC and ROS1 | very potent and selective for ALK, TRKA, TRKB, and TRKC | 0.13 nM | entrectinib like activity | 151 nM | 144 nM | 23.4 nM | 1220 nM
2 | COc1c2c(nn1C)CN(C)C(=O)c1ccc(F)cc1[C@H]1CCCN1c1cc-2cnc1N [Compound I-1b, (R)-26-amino-45-fluoro-15-methoxy-11,6-dimethyl-11H-6-aza-2(3,5)-pyridina-1(4,3)-pyrazola-3(1,2)-pyrrolidina-4(1,3)-benzenacycloheptaphan-5-one] |  | 9 nM | 4 nM | 0.9 nM | 0.7 nM | 20 nM | 0.9 nM |  |  |  |  |  | very potent and selective for ALK, TRKA, TRKB, and TRKC |  |  |  |  |  | 
3 | Cc1c2c(nn1C)CN(C)C(=O)c1ccc(F)cc1[C@H]1CCCN1c1cc-2cnc1N [Compound I-1c, (R)-2^6-amino-4^5-fluoro-1^1,1^5,6-trimethyl-1^1H-6-aza-2(3,5)-pyridina-1(4,3)-pyrazola-3(1,2)-pyrrolidina-4(1,3)-benzenacycloheptaphan-5-one] |  | 5 nM | 1 nM | < 0.5 nM | 0.5 nM | 3 nM | 0.6 nM |  |  |  |  |  | very potent and selective for ALK, TRKA, TRKB, and TRKC |  |  |  |  |  | 
4 | CN1Cc2nn(C)c(C#N)c2-c2cnc(N)c(c2)N2CCC[C@@H]2c2cc(F)ccc2C1=O [Compound I-1d, (R)-2^6-amino-4^5-fluoro-1,6-dimethyl-5-oxo-1^1H-6-aza-2(3,5)-pyridina-1(4,3)-pyrazola-3(1,2)-pyrrolidina-4(1,3)-benzenacycloheptaphane-15-carbonitrile] |  | 7 nM | 6 nM | 5 nM | 2 nM | 3 nM | 1 nM |  |  |  |  |  | very potent and selective for ALK, TRKA, TRKB, and TRKC |  |  |  |  |  | 
5 | Cn1cc2c(n1)CN(C1CC1)C(=O)c1ccc(F)cc1[C@H]1CCCN1c1cc-2cnc1N [Compound I-1e, (R)-2^6-amino-6-cyclopropyl-4^5-fluoro-1^1-methyl-1^1H-6-aza-2(3,5)-pyridina-1(4,3)-pyrazola-3(1,2)-pyrrolidina-4(1,3)-benzenacycloheptaphan-5-one] |  | 6 nM | 2 nM | 0.7 nM | 0.7 nM | 6 nM | 0.7 nM |  |  |  |  |  |  |  |  |  |  |  | 
6 | CN1CCN(c2ccc(C(=O)Nc3n[nH]c4ccc(Cc5cc(F)cc(F)c5)cc34)c(NC3CCOCC3)c2)CC1 [Entrectinib] |  |  |  |  |  |  |  |  |  | 2020 nM | more active than compound I-1a |  |  |  |  |  |  |  | 
7 | C[C@H]1Oc2cc(cnc2N)-c2c(nn(C)c2C#N)CN(C)C(=O)c2ccc(F)cc21 [Lorlatinib, reference compound] |  |  |  |  |  |  |  |  |  | 18900 nM |  |  |  | 66.9 nM |  |  |  |  | 
